In ChEMBL document CHEMBL4392852, “Synthesis and characterization of hydrogen peroxide activated estrogen receptor beta ligands” (Bioorg Med Chem, 2019):
Each block holds one compound with its values, some of them ahead of it.

Experiments:
[1] = Drug metabolism in pH 7.4 PBS assessed as formation of DPN at 150 uM at 37 degC incubated for 1 hr in presence of 5 fold excess TBHP by HPLC analysis
[2] = Retention time of the compound at 150 uM by HPLC analysis; format: physicochemical
[3] = Drug metabolism in pH 7.4 PBS assessed as second order rate constant for H2O2-mediated formation of DPN at 75 uM at 37 degC incubated for over 4 hrs by UV spectroscopy
[4] = Drug metabolism in pH 7.4 PBS in absence of H2O2 at 75 uM incubated at 37 degC for 4 hrs by UV spectroscopy
Estrogen receptor beta [5] = target: T1, Estrogen receptor beta (Homo sapiens, UniProt Q92731); assay: Ratio of RBA for DPN to RBA for test compound for displacement of fluormone tracer from full length human recombinant ERbeta relative to estradiol
[6] = Drug metabolism in pH 7.4 PBS assessed as formation of DPN at 150 uM at 37 degC incubated for 1 hr in presence of 5 fold excess H2O2 by HPLC analysis
[7] = Drug metabolism in pH 7.4 PBS assessed as formation of DPN at 150 uM at 37 degC incubated for 1 hr in presence of 5 fold excess superoxide by HPLC analysis relative to untreated control
[8] = Drug metabolism in pH 7.4 PBS assessed as H2O2-mediated formation of DPN at 75 uM at 37 degC incubated for 10 mins by UV spectroscopy
[9] = Drug metabolism in pH 7.4 PBS assessed as formation of DPN at 150 uM at 37 degC incubated for 1 hr in presence of 5 fold excess nitric oxide by HPLC analysis
[10] = Drug metabolism in pH 7.4 PBS assessed as formation of DPN at 150 uM at 37 degC incubated for 1 hr in presence of 5 fold excess hypochlorite by HPLC analysis relative to untreated control
[11] = target: T2, Estrogen receptor (Homo sapiens) (UniProt P03372); assay: Ratio of RBA for DPN to RBA for test compound for displacement of fluormone tracer from full length human recombinant ERalpha relative to estradiol
T2 sequence (whole entry): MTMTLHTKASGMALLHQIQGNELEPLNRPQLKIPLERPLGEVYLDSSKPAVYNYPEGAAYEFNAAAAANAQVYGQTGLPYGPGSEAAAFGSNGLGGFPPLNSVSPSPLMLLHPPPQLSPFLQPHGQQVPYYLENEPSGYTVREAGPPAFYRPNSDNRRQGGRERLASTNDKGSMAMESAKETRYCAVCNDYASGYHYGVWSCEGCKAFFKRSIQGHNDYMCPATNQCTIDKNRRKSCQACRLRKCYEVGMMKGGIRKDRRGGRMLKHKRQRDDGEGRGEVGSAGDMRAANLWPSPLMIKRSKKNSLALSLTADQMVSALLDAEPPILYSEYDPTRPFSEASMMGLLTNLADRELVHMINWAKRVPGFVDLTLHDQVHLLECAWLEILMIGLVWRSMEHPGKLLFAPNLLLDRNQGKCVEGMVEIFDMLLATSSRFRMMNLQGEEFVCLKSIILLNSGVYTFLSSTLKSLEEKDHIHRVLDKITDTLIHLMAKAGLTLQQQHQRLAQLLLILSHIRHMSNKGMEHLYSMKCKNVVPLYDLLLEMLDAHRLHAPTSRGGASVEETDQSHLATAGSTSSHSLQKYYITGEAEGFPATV

[12] = Drug metabolism in pH 7.4 PBS assessed as formation of DPN at 150 uM at 37 degC incubated for 1 hr in presence of 5 fold excess hydroxyl radical by HPLC analysis
Estrogen receptor beta [13] = target: T1, Estrogen receptor beta; assay: Activation of human ERbeta assessed as induction of transcriptional activation incubated for 24 hrs in presence of 100 uM H2O2 by luciferase reporter gene assay
Estrogen receptor beta [14] = target: T1, Estrogen receptor beta; assay: Activation of human ERbeta assessed as induction of transcriptional activation incubated for 24 hrs in presence of 50 uM H2O2 by luciferase reporter gene assay
Estrogen receptor beta [15] = target: T1, Estrogen receptor beta; assay: Activation of human ERbeta assessed as induction of transcriptional activation incubated for 24 hrs by luciferase reporter gene assay
[16] = Drug metabolism in pH 7.4 PBS assessed as H2O2-mediated conversion to E2 by measuring retention time of product at 500 uM incubated at 37 degC for 30 mins by GC-MS analysis; format: physicochemical; settings: buffer, pH 7.4, 0.5 h
[17] = Drug metabolism in pH 7.4 PBS assessed as H2O2-mediated conversion to phenol by measuring second order rate constant for disappearance of starting material at 75 uM incubated at 37 degC for 4 hrs by UV spectroscopy
Estrogen receptor beta [18] = target: T1, Estrogen receptor beta; assay: Ratio of RBA for estradiol RBA for test compound for displacement of fluormone tracer from full length human recombinant ERbeta relative to estradiol
[19] = Drug metabolism in pH 7.4 PBS assessed as H2O2-mediated conversion to E2 incubated at 500 uM at 37 degC for 30 mins by GC-MS analysis
[20] = target: T2, Estrogen receptor (Homo sapiens); assay: Ratio of RBA for estradiol RBA for test compound for displacement of fluormone tracer from full length human recombinant ERalpha relative to estradiol
[21] = target: T2, Estrogen receptor (Homo sapiens); assay: Ratio of RBA for Estrone to RBA for test compound for displacement of fluormone tracer from full length human recombinant ERalpha relative to estradiol
[22] = Drug metabolism in pH 7.4 PBS assessed as H2O2-mediated conversion to E1 by measuring second order rate constant incubated at 75 uM at 37 degC for 4 hrs by UV spectroscopy
Estrogen receptor beta [23] = target: T1, Estrogen receptor beta; assay: Ratio of RBA for Estrone to RBA for test compound for displacement of fluormone tracer from full length human recombinant ERbeta relative to estradiol

T1 sequence (Q92731 whole entry): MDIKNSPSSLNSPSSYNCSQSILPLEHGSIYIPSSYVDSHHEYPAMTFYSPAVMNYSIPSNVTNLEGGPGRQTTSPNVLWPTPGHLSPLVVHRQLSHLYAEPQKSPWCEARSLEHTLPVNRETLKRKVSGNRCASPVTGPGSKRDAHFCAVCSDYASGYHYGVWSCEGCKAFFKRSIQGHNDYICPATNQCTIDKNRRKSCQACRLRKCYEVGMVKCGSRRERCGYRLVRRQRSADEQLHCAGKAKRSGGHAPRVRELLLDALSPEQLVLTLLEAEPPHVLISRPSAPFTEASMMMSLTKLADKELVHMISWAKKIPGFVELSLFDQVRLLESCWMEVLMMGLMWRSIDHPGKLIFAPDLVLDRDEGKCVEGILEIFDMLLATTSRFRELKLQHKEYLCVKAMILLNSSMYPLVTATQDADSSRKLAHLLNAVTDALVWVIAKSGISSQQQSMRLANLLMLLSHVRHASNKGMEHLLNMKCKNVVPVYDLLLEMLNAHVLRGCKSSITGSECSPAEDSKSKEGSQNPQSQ

SMILES: CC1(C)OB(c2ccc(C(C#N)Cc3ccc(O)cc3)cc2)OC1(C)C (centres undefined)
- Drug metabolism [1]: Metabolite not detected
- Retention_time [2]: 23 min
- K [3]: 5.92 M⁻¹ s⁻¹
- Drug metabolism [4]: Metabolite not detected
- Ratio (Estrogen receptor beta [5]): 5
- Drug metabolism [6]: Metabolite detected
- Drug metabolism [7]: 22%
- Drug metabolism [8]: Metabolite detected
- Drug metabolism [9]: Metabolite not detected
- Drug metabolism [10]: 50 to 80%
- Ratio [11]: 6
- Drug metabolism [12]: Metabolite not detected

SMILES: N#CC(Cc1ccc(O)cc1)c1ccc(O)cc1 (centres undefined) [DIARYLPROPIONITRILE]
- Retention_time [2]: 19 min

SMILES: CC1(C)OB(c2ccc3c(c2)CC[C@@H]2[C@@H]3CC[C@]3(C)[C@@H](O)CC[C@@H]23)OC1(C)C
- Retention_time [16]: 12.5 min
- K [17]: 5.57 M⁻¹ s⁻¹
- Drug metabolism [4]: Metabolite not detected
- Ratio (Estrogen receptor beta [18]): 3
- Drug metabolism [19]: Metabolite detected
- Ratio [20]: 3

SMILES: CC1(C)OB(c2ccc3c(c2)CC[C@@H]2[C@@H]3CC[C@]3(C)C(=O)CC[C@@H]23)OC1(C)C
- Ratio [21]: 6
- Drug metabolism [4]: Metabolite not detected
- K [22]: 4.81 M⁻¹ s⁻¹
- Ratio (Estrogen receptor beta [23]): 6

The next lines start with results.

- EC50 (Estrogen receptor beta [13]): 1.2 nM
- Retention_time [2]: 28 min
- EC50 (Estrogen receptor beta [14]): 6.1 nM
- Ratio (Estrogen receptor beta [5]): 20
- EC50 (Estrogen receptor beta [15]): 470 nM
SMILES: CC1(C)OB(c2ccc(CC(C#N)c3ccc(B4OC(C)(C)C(C)(C)O4)cc3)cc2)OC1(C)C (centres undefined)
- Drug metabolism [1]: Metabolite not detected
- K [3]: 5.14 M⁻¹ s⁻¹
- Drug metabolism [4]: Metabolite not detected
- Drug metabolism [6]: Metabolite detected
- Drug metabolism [7]: 22%
- Drug metabolism [8]: Metabolite detected
- Drug metabolism [9]: Metabolite not detected
- Drug metabolism [10]: 50 to 80%
- Drug metabolism [12]: Metabolite not detected

- Retention_time [2]: 22 min
- Ratio (Estrogen receptor beta [5]): 5
- Ratio [11]: 4.5
SMILES: CC1(C)OB(c2ccc(CC(C#N)c3ccc(O)cc3)cc2)OC1(C)C (centres undefined)
- Drug metabolism [1]: Metabolite not detected
- K [3]: 6.46 M⁻¹ s⁻¹
- Drug metabolism [4]: Metabolite not detected
- Drug metabolism [6]: Metabolite detected
- Drug metabolism [7]: 22%
- Drug metabolism [8]: Metabolite detected
- Drug metabolism [9]: Metabolite not detected
- Drug metabolism [10]: 50 to 80%
- Drug metabolism [12]: Metabolite not detected
